# Compound: CCN1C(=O)C2=CC(=C(N=C2N(C1=O)C3CC3)N)C(=O)N
# Experiment: relative viability (nuclei count vs DMSO), 5 days (fraction); higher = more cells survive
# Procedure, shortened: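 Viability was read as treated-well nuclei divided by vehicle-well nuclei, using the median across plates. Lung cancer cell lines in 1536-well plates were kept overnight at 37 °C, pinned with five √10-spaced library-drug doses, and after 5 days were Hoechst-stained, imaged at 4× and counted in MetaXpress. Plates passed only with control CV below 25% and at least one doubling.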
cell line,measurement,setting,value
201T,relative viability,0.253 µM,0.993
same,relative viability,0.8 µM,0.948
same,relative viability,2.53 µM,1.04
same,relative viability,8 µM,0.964
A-427,relative viability,0.253 µM,1.02
same,relative viability,0.8 µM,0.991
same,relative viability,2.53 µM,1.03
same,relative viability,8 µM,1.03
ABC-1,relative viability,0.253 µM,0.986
same,relative viability,0.8 µM,0.686
same,relative viability,2.53 µM,1
same,relative viability,8 µM,0.841
BEN,relative viability,0.253 µM,0.952
same,relative viability,0.8 µM,0.885
same,relative viability,2.53 µM,1.11
same,relative viability,8 µM,1.02
CAL-12T,relative viability,0.253 µM,1
same,relative viability,0.8 µM,0.964
same,relative viability,2.53 µM,1.02
same,relative viability,8 µM,1.02
COR-L23,relative viability,0.253 µM,1.01
same,relative viability,0.8 µM,0.962
same,relative viability,2.53 µM,1.04
same,relative viability,8 µM,1.12
COR-L 105,relative viability,0.253 µM,0.979
same,relative viability,0.8 µM,0.841
same,relative viability,2.53 µM,0.875
same,relative viability,8 µM,0.963
ChaGo-K-1,relative viability,0.253 µM,1.12
same,relative viability,0.8 µM,0.949
same,relative viability,2.53 µM,0.973
same,relative viability,8 µM,0.924
EKVX,relative viability,0.253 µM,1.01
same,relative viability,0.8 µM,0.955
same,relative viability,2.53 µM,0.959
same,relative viability,8 µM,0.913
EMC-BAC-2,relative viability,0.253 µM,1.39
same,relative viability,2.53 µM,1.14
same,relative viability,8 µM,1.07
EPLC-272H,relative viability,0.253 µM,0.891
same,relative viability,0.8 µM,0.863
same,relative viability,2.53 µM,0.999
same,relative viability,8 µM,1.09
H3255,relative viability,0.253 µM,0.995
same,relative viability,0.8 µM,0.906
same,relative viability,2.53 µM,1.01
same,relative viability,8 µM,0.929
HARA,relative viability,0.253 µM,0.975
same,relative viability,0.8 µM,0.927
same,relative viability,2.53 µM,0.947
same,relative viability,8 µM,0.918
HCC-15,relative viability,0.253 µM,0.943
same,relative viability,0.8 µM,1.02
same,relative viability,2.53 µM,0.994
same,relative viability,8 µM,1.03
HCC-44,relative viability,0.253 µM,1.01
same,relative viability,0.8 µM,0.958
same,relative viability,2.53 µM,1.03
same,relative viability,8 µM,0.972
HCC-78,relative viability,0.253 µM,0.947
same,relative viability,0.8 µM,0.939
same,relative viability,2.53 µM,1.04
same,relative viability,8 µM,0.994
HCC-366,relative viability,0.253 µM,0.981
same,relative viability,0.8 µM,0.968
same,relative viability,2.53 µM,0.996
same,relative viability,8 µM,1.03
HCC-827,relative viability,0.253 µM,1.1
same,relative viability,0.8 µM,1.02
same,relative viability,2.53 µM,1.03
same,relative viability,8 µM,1.01
HOP-62,relative viability,0.253 µM,1.01
same,relative viability,0.8 µM,1.03
same,relative viability,2.53 µM,1
same,relative viability,8 µM,1.03
IA-LM,relative viability,0.253 µM,0.952
same,relative viability,0.8 µM,0.75
same,relative viability,2.53 µM,0.877
same,relative viability,8 µM,0.825
LC-2-ad,relative viability,0.253 µM,0.915
same,relative viability,0.8 µM,0.937
same,relative viability,2.53 µM,1
same,relative viability,8 µM,0.977
LCLC-97TM1,relative viability,0.253 µM,0.936
same,relative viability,0.8 µM,0.792
same,relative viability,2.53 µM,0.977
same,relative viability,8 µM,0.879
LCLC-103H,relative viability,0.253 µM,1.02
same,relative viability,0.8 µM,0.928
same,relative viability,2.53 µM,0.924
same,relative viability,8 µM,0.999
LK-2,relative viability,0.253 µM,0.979
same,relative viability,0.8 µM,0.981
same,relative viability,2.53 µM,1.03
same,relative viability,8 µM,1.04
LOU-NH91,relative viability,0.253 µM,0.838
same,relative viability,0.8 µM,0.921
same,relative viability,2.53 µM,0.996
same,relative viability,8 µM,0.944
LU99A,relative viability,0.253 µM,0.856
same,relative viability,0.8 µM,0.997
same,relative viability,2.53 µM,0.904
same,relative viability,8 µM,0.984
LXF-289,relative viability,0.253 µM,1.01
same,relative viability,0.8 µM,1.07
same,relative viability,2.53 µM,0.972
same,relative viability,8 µM,1.01
NCI-H23,relative viability,0.253 µM,0.86
same,relative viability,0.8 µM,0.96
same,relative viability,2.53 µM,0.977
same,relative viability,8 µM,0.984
NCI-H322M,relative viability,0.253 µM,0.959
same,relative viability,0.8 µM,0.929
same,relative viability,2.53 µM,0.984
same,relative viability,8 µM,0.996
NCI-H358,relative viability,0.253 µM,1.05
same,relative viability,0.8 µM,0.913
same,relative viability,2.53 µM,0.924
same,relative viability,8 µM,0.954
NCI-H441,relative viability,0.253 µM,1.1
same,relative viability,0.8 µM,1.04
same,relative viability,2.53 µM,0.965
same,relative viability,8 µM,1.03
NCI-H460,relative viability,0.253 µM,0.976
same,relative viability,0.8 µM,0.989
same,relative viability,2.53 µM,0.967
same,relative viability,8 µM,0.972
NCI-H520,relative viability,0.253 µM,0.985
same,relative viability,0.8 µM,1.02
same,relative viability,2.53 µM,0.972
same,relative viability,8 µM,0.904
NCI-H596,relative viability,0.253 µM,0.933
same,relative viability,0.8 µM,0.984
same,relative viability,2.53 µM,1.06
same,relative viability,8 µM,0.971
NCI-H647,relative viability,0.253 µM,1.02
same,relative viability,0.8 µM,0.896
same,relative viability,2.53 µM,0.993
same,relative viability,8 µM,0.924
NCI-H650,relative viability,0.253 µM,0.955
same,relative viability,0.8 µM,0.916
same,relative viability,2.53 µM,0.962
same,relative viability,8 µM,0.849
NCI-H661,relative viability,0.253 µM,1.03
same,relative viability,0.8 µM,0.991
same,relative viability,2.53 µM,0.972
same,relative viability,8 µM,0.961
NCI-H727,relative viability,0.253 µM,0.98
same,relative viability,0.8 µM,0.892
same,relative viability,2.53 µM,0.976
same,relative viability,8 µM,0.828
NCI-H838,relative viability,0.253 µM,0.99
same,relative viability,0.8 µM,0.965
same,relative viability,2.53 µM,0.923
same,relative viability,8 µM,0.96
NCI-H1355,relative viability,0.253 µM,1
same,relative viability,0.8 µM,0.998
same,relative viability,2.53 µM,0.992
same,relative viability,8 µM,0.973
NCI-H1395,relative viability,0.253 µM,0.935
same,relative viability,0.8 µM,0.972
same,relative viability,2.53 µM,1.08
same,relative viability,8 µM,0.921
NCI-H1437,relative viability,0.253 µM,0.982
same,relative viability,0.8 µM,0.979
same,relative viability,2.53 µM,0.969
same,relative viability,8 µM,0.972
NCI-H1563,relative viability,0.253 µM,0.975
same,relative viability,0.8 µM,1
same,relative viability,2.53 µM,0.955
same,relative viability,8 µM,0.929
NCI-H1650,relative viability,0.253 µM,0.937
same,relative viability,0.8 µM,0.932
same,relative viability,2.53 µM,0.901
same,relative viability,8 µM,0.877
NCI-H1651,relative viability,0.253 µM,0.929
same,relative viability,0.8 µM,0.976
same,relative viability,2.53 µM,0.965
same,relative viability,8 µM,0.948
NCI-H1666,relative viability,0.253 µM,0.93
same,relative viability,0.8 µM,0.986
same,relative viability,2.53 µM,0.959
same,relative viability,8 µM,0.938
NCI-H1703,relative viability,0.253 µM,0.953
same,relative viability,0.8 µM,0.871
same,relative viability,2.53 µM,0.886
same,relative viability,8 µM,1.07
NCI-H1734,relative viability,0.253 µM,0.9
same,relative viability,0.8 µM,0.903
same,relative viability,2.53 µM,0.948
same,relative viability,8 µM,0.943
NCI-H1755,relative viability,0.253 µM,0.984
same,relative viability,0.8 µM,1.02
same,relative viability,2.53 µM,1
same,relative viability,8 µM,0.979
NCI-H1792,relative viability,0.253 µM,0.763
same,relative viability,0.8 µM,0.786
same,relative viability,2.53 µM,1.08
same,relative viability,8 µM,0.832
NCI-H1793,relative viability,0.253 µM,0.808
same,relative viability,0.8 µM,1.02
same,relative viability,2.53 µM,0.815
same,relative viability,8 µM,1.12
NCI-H1915,relative viability,0.253 µM,0.988
same,relative viability,0.8 µM,1.01
same,relative viability,2.53 µM,1
same,relative viability,8 µM,0.922
NCI-H1944,relative viability,0.253 µM,1.01
same,relative viability,0.8 µM,0.919
same,relative viability,2.53 µM,0.954
same,relative viability,8 µM,0.827
NCI-H1975,relative viability,0.253 µM,1.01
same,relative viability,0.8 µM,0.917
same,relative viability,2.53 µM,0.957
same,relative viability,8 µM,0.892
NCI-H1993,relative viability,0.253 µM,0.972
same,relative viability,0.8 µM,0.83
same,relative viability,2.53 µM,0.919
same,relative viability,8 µM,0.878
NCI-H2009,relative viability,0.253 µM,1.02
same,relative viability,0.8 µM,1
same,relative viability,2.53 µM,0.946
same,relative viability,8 µM,0.923
NCI-H2023,relative viability,0.253 µM,0.937
same,relative viability,0.8 µM,0.901
same,relative viability,2.53 µM,0.836
same,relative viability,8 µM,0.896
NCI-H2085,relative viability,0.253 µM,1.01
same,relative viability,0.8 µM,0.99
same,relative viability,2.53 µM,0.941
same,relative viability,8 µM,0.966
NCI-H2087,relative viability,0.253 µM,0.972
same,relative viability,0.8 µM,1.14
same,relative viability,2.53 µM,1.05
same,relative viability,8 µM,1.03
NCI-H2126,relative viability,0.253 µM,1.02
same,relative viability,0.8 µM,0.989
same,relative viability,2.53 µM,0.972
same,relative viability,8 µM,0.963
NCI-H2170,relative viability,0.253 µM,0.983
same,relative viability,0.8 µM,0.928
same,relative viability,2.53 µM,1.02
same,relative viability,8 µM,0.925
NCI-H2228,relative viability,0.253 µM,0.99
same,relative viability,0.8 µM,1.01
same,relative viability,2.53 µM,0.902
same,relative viability,8 µM,0.965
NCI-H2342,relative viability,0.253 µM,1.04
same,relative viability,0.8 µM,0.821
same,relative viability,2.53 µM,0.907
same,relative viability,8 µM,0.948
NCI-H2347,relative viability,0.253 µM,0.98
same,relative viability,0.8 µM,1.04
same,relative viability,2.53 µM,1.08
same,relative viability,8 µM,1
NCI-H2405,relative viability,0.253 µM,1.09
same,relative viability,0.8 µM,1.02
same,relative viability,2.53 µM,1.06
same,relative viability,8 µM,0.982
NCI-H3122,relative viability,0.253 µM,1.01
same,relative viability,0.8 µM,1.01
same,relative viability,2.53 µM,0.993
same,relative viability,8 µM,0.956
PC-3 [JPC-3],relative viability,0.253 µM,1.06
same,relative viability,0.8 µM,1.01
same,relative viability,2.53 µM,1.06
same,relative viability,8 µM,1.08
PC-14,relative viability,0.253 µM,0.983
same,relative viability,0.8 µM,0.951
same,relative viability,2.53 µM,1.07
same,relative viability,8 µM,1.06
RERF-LC-KJ,relative viability,0.253 µM,1.02
same,relative viability,0.8 µM,0.929
same,relative viability,2.53 µM,0.909
same,relative viability,8 µM,0.959
SK-LU-1,relative viability,0.253 µM,1.05
same,relative viability,0.8 µM,1.07
same,relative viability,2.53 µM,1.06
same,relative viability,8 µM,1.06
SK-MES-1,relative viability,0.253 µM,1.01
same,relative viability,0.8 µM,0.972
same,relative viability,2.53 µM,0.976
same,relative viability,8 µM,0.997
SW 900,relative viability,0.253 µM,0.672
same,relative viability,0.8 µM,0.717
same,relative viability,2.53 µM,0.785
same,relative viability,8 µM,0.786
SW 1573,relative viability,0.253 µM,0.937
same,relative viability,0.8 µM,1.07
same,relative viability,2.53 µM,0.959
same,relative viability,8 µM,0.978
UMC-11,relative viability,0.253 µM,0.946
same,relative viability,0.8 µM,0.935
same,relative viability,2.53 µM,0.951
same,relative viability,8 µM,0.969

# Reference: the supplement of paper PMC10307832
